The numbers were not newly measured in patent US20190203187A1, “CHEMILUMINESCENT WETNESS INDICATOR FOR ABSORBENT PRODUCTS” (International Paper Company, priority 2014, published 2019), which cites them from elsewhere.

Series [1] has as its target T1, Renilla Luciferase (Renilla reniformis, UniProt P27652).
T1 sequence (P27652 1-311): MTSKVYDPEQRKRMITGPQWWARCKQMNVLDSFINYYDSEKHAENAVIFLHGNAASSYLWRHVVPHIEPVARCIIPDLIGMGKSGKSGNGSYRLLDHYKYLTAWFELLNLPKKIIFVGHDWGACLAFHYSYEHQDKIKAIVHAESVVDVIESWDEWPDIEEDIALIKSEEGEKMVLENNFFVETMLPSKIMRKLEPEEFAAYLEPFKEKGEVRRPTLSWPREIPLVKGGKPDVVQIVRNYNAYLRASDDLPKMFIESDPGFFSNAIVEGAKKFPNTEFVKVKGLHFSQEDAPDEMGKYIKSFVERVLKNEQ

In series [2] the target is T2, apoaequorin (Aequorea victoria, UniProt P07164).
T2 sequence (P07164 8-196): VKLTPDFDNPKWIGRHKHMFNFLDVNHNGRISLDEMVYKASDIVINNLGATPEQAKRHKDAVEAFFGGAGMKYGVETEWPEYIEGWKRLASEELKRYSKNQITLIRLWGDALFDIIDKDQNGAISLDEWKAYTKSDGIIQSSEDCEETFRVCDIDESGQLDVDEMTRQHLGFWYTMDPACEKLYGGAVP
Conditions: for luminescence intensity relative to coelenterazine (native form): coelenterazine-apoaequorin (aequorin) complex.

Series [3] concerns Gaussia luciferase (Gluc).

Take `Oc1ccc(-c2cn3c(O)c(Cc4ccc(F)cc4)nc3c(CC3CCCC3)n2)cc1` [coelenterazine fcp]: in series [1], the “quality as substrate for Renilla luciferase” value is “poor substrate”. Also, the “luminescence intensity relative to coelenterazine (native form)” value in series [2] is 135 times.

As to `Oc1ccc(Cc2nc3c(CC4CCCC4)nc(-c4ccc(O)cc4)cn3c2O)cc1` [coelenterazine cp], the “luminescence intensity relative to coelenterazine (native form)” value in series [2] is 15 times.

In the case of `Oc1ccc(Cc2nc3c(Cc4ccccc4)nc4c(n3c2O)CCc2cc(O)ccc2-4)cc1` [coelenterazine e], in series [2], the “quality as substrate for apoaequorin” value is reported as “poor substrates”.

Consider coelenterazine f, for which the “luminescence intensity relative to coelenterazine (native form)” value in series [2] is 20 times. Besides, the “emission maximum longer than that of the native form” value in series [2] (coelenterazine-apoaequorin complex) is listed as “about 8 nm”.

Take `O=c1c(Cc2ccccc2)nc2c(Cc3ccccc3)[nH]c(-c3ccccc3)cn1-2` [coelenterazine 400a, coelenterazine 400a (2-2′(4-dehydroxy)) coelenterazine]: the “quality as substrate for Renilla luciferase” value in series [1] is recorded as “good substrate”. The emission maximum in series [1] (substrate for Renilla luciferase, BRET) is on record as 400 nm. For the same compound, in series [3], the “oxidation with Gaussia luciferase” value is reported as “does not oxidize well”.
